# Several values for one entry are separate records, joined by “and”; a condition that tells them apart may be missing. Equal entries are not always repeated.
# Tested on: T2 soybean events expressing the indicated Amaranthus PPO2 variant transgene
# Test: Soybean PPO inhibitor tolerance testing, injury score (Table C)
# Format: in vivo, Soybean cv Jake
# Details: V2 stage, 3 days after treatment, individual plants
# Method: Soybean cv Jake is transformed as previously described by Siminszky et al., Phytochem Rev. 5:445-458 (2006). After regeneration, transformants are transplanted to soil in small pots, placed in growth chambers (16 hr day/8 hr night; 25° C. day/23° C. night; 65% relative humidity; 130-150 microE m-2 s-1) and subsequently tested for the presence of the T-DNA via Taqman analysis. After a few weeks, healthy, transgenic positive, single copy events are transplanted to larger pots and allowed to grow in the growth chamber. An optimal shoot for cutting is about 3-4 inches tall, with at least two nodes present. Each cutting is taken from the original transformant (mother plant) and dipped into rooting hormone powder (indole-3-butyric acid, IBA). The cutting is then placed in oasis wedges inside a bio-dome. The mother plant is taken to maturity in the greenhouse and harvested for seed. Wild type cuttings are also taken simultaneously to serve as negative controls. The cuttings are kept in the bio-dome for 5-7 days and then transplanted to 3 inch pots and then acclimated in the growth chamber for two more days. Subsequently, the cuttings are transferred to the greenhouse, acclimated for approximately 4 days prior to spray. […] g ai/ha saflufenacil plus 1% MSO and/or 25-200 g ai/ha 1,5-dimethyl-6-thioxo-3-(2,2,7-trifluoro-3-oxo-4-(prop-2-ynyl)-3,4-dihydro-2H-benzo[b][1,4]oxazin-6-yl)-1,3,5-triazinane-2,4-dione (CAS 1258836-72-4) plus 1% MSO. Other PPO inhibiting herbicides are also tested in a similar fashion for confirming cross resistance: flumioxazin, butafenacil, acifluorfen, lactofen, bifenox, sulfentrazone, methyl 2-[2-chloro-5-[3-chloro-5-(trifluoromethyl)-2-pyridyl]-4-fluoro-phenoxy]-2-methoxy-acetate, ethyl 2-[2-chloro-5-[3-chloro-5-(trifluoromethyl)-2-pyridyl]-4-fluoro-phenoxy]-2-methoxy-acetate, prop-2-ynyl 2-[2-chloro-5-[3-chloro-5-(trifluoromethyl)-2-pyridyl]-4-fluoro-phenoxy]-2-methoxy-acetate and photosynthesis inhibitor diuron as negative control. […]
# The following gives a definition of the injury scores measured above: […]
# [1] = soybean T2, transgene L397E_F420M, 25 g ai/ha + 1% v/v MSO
# [2] = soybean T2, transgene L397E_F420M, 50 g ai/ha + 1% v/v MSO
# [3] = soybean T2, transgene L397E_F420M, 100 g ai/ha + 1% v/v MSO
# [4] = soybean T2, transgene L397E_F420M, 200 g ai/ha + 1% v/v MSO
# [5] = soybean T2, transgene L397Q_F420M, 25 g ai/ha + 1% v/v MSO
# [6] = soybean T2, transgene L397Q_F420M, 50 g ai/ha + 1% v/v MSO
# [7] = soybean T2, transgene L397Q_F420M, 100 g ai/ha + 1% v/v MSO
# [8] = soybean T2, transgene L397Q_F420M, 200 g ai/ha + 1% v/v MSO
# [9] = soybean T2, transgene R128A_F420I event 1, 25 g ai/ha + 1% v/v MSO
# [10] = soybean T2, transgene R128A_F420I event 1, 50 g ai/ha + 1% v/v MSO
# [11] = soybean T2, transgene R128A_F420I event 1, 100 g ai/ha + 1% v/v MSO
# [12] = soybean T2, transgene R128A_F420I event 1, 200 g ai/ha + 1% v/v MSO
# [13] = soybean T2, transgene R128A_F420I event 2, 25 g ai/ha + 1% v/v MSO
# [14] = soybean T2, transgene R128A_F420I event 2, 50 g ai/ha + 1% v/v MSO
# [15] = soybean T2, transgene R128A_F420I event 2, 100 g ai/ha + 1% v/v MSO
# [16] = soybean T2, transgene R128A_F420I event 2, 200 g ai/ha + 1% v/v MSO
# [17] = soybean T2, transgene R128A_F420I event 3, 25 g ai/ha + 1% v/v MSO
# [18] = soybean T2, transgene R128A_F420I event 3, 50 g ai/ha + 1% v/v MSO
# [19] = soybean T2, transgene R128A_F420I event 3, 100 g ai/ha + 1% v/v MSO
# [20] = soybean T2, transgene R128A_F420I event 3, 200 g ai/ha + 1% v/v MSO
# [21] = soybean T2, transgene R128A_F420V, 25 g ai/ha + 1% v/v MSO
# [22] = soybean T2, transgene R128A_F420V, 50 g ai/ha + 1% v/v MSO
# [23] = soybean T2, transgene R128A_F420V, 100 g ai/ha + 1% v/v MSO
# [24] = soybean, Non transgenic, 25 g ai/ha + 1% v/v MSO
# [25] = soybean, Non transgenic, 50 g ai/ha + 1% v/v MSO
# [26] = soybean, Non transgenic, 100 g ai/ha + 1% v/v MSO
# [27] = soybean, Non transgenic, 200 g ai/ha + 1% v/v MSO
SMILES,injury on a 0-9 point scale [1],injury on a 0-9 point scale [2],injury on a 0-9 point scale [3],injury on a 0-9 point scale [4],injury on a 0-9 point scale [5],injury on a 0-9 point scale [6],injury on a 0-9 point scale [7],injury on a 0-9 point scale [8],injury on a 0-9 point scale [9],injury on a 0-9 point scale [10],injury on a 0-9 point scale [11],injury on a 0-9 point scale [12],injury on a 0-9 point scale [13],injury on a 0-9 point scale [14],injury on a 0-9 point scale [15],injury on a 0-9 point scale [16],injury on a 0-9 point scale [17],injury on a 0-9 point scale [18],injury on a 0-9 point scale [19],injury on a 0-9 point scale [20],further results
CCOC(=O)C(OC)Oc1cc(-c2ncc(C(F)(F)F)cc2Cl)c(F)cc1Cl (stereo not shown) [ethyl 2-[2-chloro-5-[3-chloro-5-(trifluoromethyl)-2-pyridyl]-4-fluoro-phenoxy]-2-methoxy-acetate],0 (2×) and 9,0 (2×) and 2,3 (2×) and 9,4 and 3 and 5,1 and 9,9 and 3 and 2,2,2 and 9,0 (2×) and 1,0 (2×) and 1,4,4 (2×) and 5,2 and 5 and 1,1 and 2,5 and 9,7 and 4 (2×),1,1,3 and 2,3 (2×) and 4,"injury on a 0-9 point scale [21]: 0; injury on a 0-9 point scale [22]: 5; injury on a 0-9 point scale [23]: 4; injury on a 0-9 point scale (soybean T2, transgene R128A_F420V, 200 g ai/ha + 1% v/v MSO): 4 and 5; injury on a 0-9 point scale [24]: 9; injury on a 0-9 point scale [25]: 9; injury on a 0-9 point scale [26]: 9; injury on a 0-9 point scale [27]: 9"
C#CCOC(=O)C(OC)Oc1cc(-c2ncc(C(F)(F)F)cc2Cl)c(F)cc1Cl (stereo not shown) [prop-2-ynyl 2-[2-chloro-5-[3-chloro-5-(trifluoromethyl)-2-pyridyl]-4-fluoro-phenoxy]-2-methoxy-acetate],1 and 0 and 9,0 (2×) and 1,1,3 (2×) and 4,0,2 and 1 and 0,1 and 2 (2×),1 (2×) and 2,0,2 and 3 and 4,5,5 (2×) and 4,0,2 (2×) and 3,4 (2×) and 5,5,0,2,1,3 and 4,injury on a 0-9 point scale [21]: 2; injury on a 0-9 point scale [22]: 4 (2×) and 5; injury on a 0-9 point scale [23]: 4; injury on a 0-9 point scale [24]: 9; injury on a 0-9 point scale [25]: 9; injury on a 0-9 point scale [26]: 9; injury on a 0-9 point scale [27]: 9

# Source: patent US11149030B2, “Plants having increased tolerance to herbicides” (BASF AGRO B.V., priority 2016, dated 2021)
